Test results from ChEMBL document CHEMBL4020799, “Design, synthesis of novel furan appended benzothiazepine derivatives and in vitro biological evaluation as potent VRV-PL-8a and H+/K+ ATPase inhibitors” (Bioorg Med Chem Lett, 2017).
Calls of active or inactive are those of the source. No cut-off for these calls is given here.

Tests used:
[1] = target: T1, Basic phospholipase A2 VRV-PL-VIIIa (Daboia russelii) (UniProt P59071); assay: (§1) Inhibition of Vipera russelii sPLA2 pre-incubated for 5 mins before DMPC substrate addition and measured after 45 mins
T1 sequence (whole entry): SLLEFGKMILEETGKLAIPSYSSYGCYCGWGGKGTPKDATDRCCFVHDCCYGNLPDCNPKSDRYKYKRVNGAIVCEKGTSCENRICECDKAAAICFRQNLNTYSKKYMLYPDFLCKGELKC

[2] = target: T2, Basic phospholipase A2 VRV-PL-VIIIa (Daboia russelii, UniProt P59071); assay: as §1
T2 sequence (P59071 whole entry): T1 sequence (whole entry)

[3] = Inhibition of hydrogen potassium ATPase in pig stomach mucosal membrane assessed as reduction in liberated inorganic phosphate level after 15 mins by colorimetric method; type: cell membranes, Sus scrofa
[4] = target: T1, Basic phospholipase A2 VRV-PL-VIIIa (Daboia russelii); assay: Inhibition of Vipera russelii venom sPLA2-induced hemolytic activity in human erythrocytes assessed as reduction hemoglobin release in presence of egg yolk preincubated for 5 mins followed by erythrocyte addition by spectrophotometric analysis; type: cell-based
[5] = target: T1, Basic phospholipase A2 VRV-PL-VIIIa (Daboia russelii); assay: Inhibition of Vipera russelii venom sPLA2 at 11.01 uM in presence of fixed concentrations of DMPC substrate and 0 to 12 uM of calcium measured after 5 mins
[6] = target: T1, Basic phospholipase A2 VRV-PL-VIIIa (Daboia russelii); assay: Inhibition of Vipera russelii venom sPLA2 at 11.01 uM in presence of fixed concentration of calcium and 0 to 400 uM of DMPC substrate measured after 5 mins
[7] = target: T1, Basic phospholipase A2 VRV-PL-VIIIa (Daboia russelii); assay: Inhibition of Vipera russelii venom sPLA2 assessed as remaining enzyme activity level at 11.01 uM in presence of fixed concentration of calcium and 400 uM of DMPC substrate measured after 5 mins

| SMILES | inhibition [1] | IC50 [2] | IC50 [3] | inhibition [4] | inhibition [5] | inhibition [6] | Activity [7] |
| --- | --- | --- | --- | --- | --- | --- | --- |
| c1ccc(C2CC(c3ccco3)=Nc3ccccc3S2)cc1 (stereo not drawn) | Dose-dependent effect | 12 µM | 8.01 µM | – | – | – | – |
| Brc1ccc(C2CC(c3ccco3)=Nc3ccccc3S2)cc1 (stereo not drawn) | Dose-dependent effect | 24.1 µM | 2.11 µM | – | – | – | – |
| c1coc(C2=Nc3ccccc3SC(c3ccc4c(c3)OCO4)C2)c1 (stereo not drawn) | Dose-dependent effect | 25.1 µM | 5.14 µM | – | – | – | – |
| COc1ccc(C2CC(c3ccco3)=Nc3ccccc3S2)cc1 (stereo not drawn) | Dose-dependent effect | 11 µM | 1.99 µM | Dose-dependent effect | Active | Active | 51% |
| COc1cc(C2CC(c3ccco3)=Nc3ccccc3S2)ccc1O (stereo not drawn) | Dose-dependent effect | 43.4 µM | 4.39 µM | – | – | – | – |
| O=[N+]([O-])c1ccc(C2CC(c3ccco3)=Nc3ccccc3S2)cc1 (stereo not drawn) | Dose-dependent effect | 56.9 µM | 3.73 µM | – | – | – | – |
| Fc1ccc(C2CC(c3ccco3)=Nc3ccccc3S2)cc1 (stereo not drawn) | Dose-dependent effect | 25.2 µM | 5.1 µM | – | – | – | – |
| Clc1ccc(C2CC(c3ccco3)=Nc3ccccc3S2)cc1 (stereo not drawn) | Dose-dependent effect | 19.3 µM | 5.28 µM | – | – | – | – |
